Results taken from patent US20240376154A1, “BIS-INTERCALATING PEPTIDES, CONJUGATES AND METHODS OF USE” (ZYMEWORKS BC INC., priority 2023, published 2024).
Read-outs that look alike come from different tables or passages of the source. Where a SMILES comes first, the peptide text is derived from it. Bridges are numbered along the chain shown (N, C = ends). Roman numbers before positions name the chains, in order. [ ]: non-standard residue; d: D form. The star is where a group is joined. Quinaldoyl(3-OH) = O=C(c1nc2ccccc2cc1O)*; NMeV = CN[C@H](C(=O)O)C(C)C; Pip = O=C(O)[C@@H]1CCCCN1; dDap = NC[C@@H](N)C(=O)O; Sar = CNCC(=O)O

Experiments:
[1] = tested on: tumour cells (at least 4 of a panel of ovarian, breast, lung, pancreatic, placenta, colon cell lines); assay: In vitro cytotoxicity (cell proliferation, CellTiter-Glo), average over tumour cell line panel; type: cell-based; conditions: for pIC50 (average): average pIC50 on all cell lines tested, 5 nights incubation, CellTiter-Glo
Outline: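 Each cell line seeded at ~1000 cells/well and left to adhere overnight, then given a 10-point 1:3 compound titration for 5 nights at 37° C, 5% CO2. Viability read by CellTiter-Glo luminescence; IC50 per line, reported as pIC50 averaged across at least 4 lines.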

[2] = Lipophilicity by experimental HPLC retention time; type: physicochemical; conditions: HPLC retention time as measure of lipophilicity; C18, 10 to 90% CH3CN/H2O with 0.1% FA over 25 min
Outline: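 Reversed-phase HPLC with diode array detection on a Kinetex EVO C18 150×4.6, 2.6 μm column. Gradient 10 to 90% CH3CN/H2O with 0.1% FA over 25 min; retention time serves as the lipophilicity measure.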

herring sperm DNA = assay: DNA melting temperature by differential scanning calorimetry (DSC); type: binding; conditions: DSC; herring sperm DNA; DNA melting temperature = 68° C.
Experimental: (§1) Representative compounds prepared as described in Example 2 were assessed in two complementary DNA-binding assays. Increased melting temperature of herring sperm DNA was measured using differential scanning calorimetry (DSC) and binding kinetics were determined by surface plasmon resonance (SPR) using a short DNA hairpin sequence.
DSC experiments were conducted as described in Leng, 2003, Nucleic Acids Res., 31 (21): […], using a Nano DSC (TA Instruments, New Castle, DE) and analyzed using the NanoAnalyze™ software package. Herring sperm DNA solution (Invitrogen 15634017, 10 mg/mL) was diluted to 1 mg/mL (1.4 mM base pair) in BPE buffer (6 mM Na2HPO4, 2 mM NaH2PO4, 1 mM Na4EDTA, pH 7.0). Test articles (20 μL, 10 mM in DMSO) were added and allowed reach equilibrium binding (>3 h), any insoluble material was removed by low-speed centrifugation, then samples were heated from 25 to 110° C. at a scan rate of 1° C./min. Melting curves were plotted and melting temperature was determined using NanoAnalyze™.

[3] = Stability in female mouse plasma; type: in vitro ADME; conditions: 37° C., 24 h; for plasma stability (in words): 1 μM
Experimental: The stability of exemplary compounds of general Formula I in mouse plasma was evaluated as follows.
Compounds were incubated at 1 μM in duplicate in female mouse plasma, 250 μL final volume, at 37° C. for 24 h. Aliquots were sampled at 0, 15, 30, 60, 120, 240, 480 and 1440 min. Proteins were precipitated by addition of 5 volumes of cold methanol. After centrifugation 10000×g for 10 min, the residual concentration of compound in the supernatant was measured using an appropriate LC-MS/MS method. The measured concentrations were expressed as a function of time through a one-phase decay exponential regression calculated using GraphPad Prism software (GraphPad Software, Inc.) to generate the plasma half-life for each compound.

[4] = tested on: biotinylated hairpin DNA sequence 5'-GCATGCTTTTGCATGC; assay: DNA binding by surface plasmon resonance (SPR); conditions: for KD (mM): SPR, 25° C., hairpin DNA
Experimental: as §1
SPR experiments were conducted at 25° C. using a Biacore™ T200 instrument and SA-Biotin chip. PBST Buffer: Gibco PBS, pH 7.4 was modified with Tween®20 (0.01%) and DMSO (2%). Immobilization: a short biotinylated hairpin DNA sequence 5′-GCATGCTTTTGCATGC (5′ biotin) (SEQ ID NO: 1) that contains two known sandramycin binding segments (in bold) was heated to 90° C., cooled to RT then immobilized to 700 RU. Bis-intercalating peptides at concentrations of 5, 2.5, 1.25, 0.625, and 0.312 μM in PBST were flowed over the chip at 20 μL/min with an association time of 600 s followed by dissociation for 600 s. Reference cell values were subtracted and binding constants ka, kd, and KD were determined using Biacore™ T200 Evaluation Software, version 3.0.

[5] = amide bond, 32-membered ring

Compound: CC(C)[C@H]1C(=O)NC[C@@H](NC(=O)c2nc3ccccc3cc2O)C(=O)N2CCCC[C@H]2C(=O)NCC(=O)N(C)CC(=O)N(C)[C@@H](C(C)C)C(=O)OC[C@@H](NC(=O)c2nc3ccccc3cc2O)C(=O)N2CCCC[C@H]2C(=O)NCC(=O)N(C)CC(=O)N1C [Compound 14, N,N′-((7R,11S,19aS,26R,30S,38aS)-11,30-diisopropyl-12,15,31,34-tetramethyl-6,10,13,16,19,25,29,32,35,38-decaoxotetratriacontahydro-2H,6H,10H-dipyrido[2,1-b1: 2′,1′-l][1]oxa[4,7,10,13,17,20,23,26,29]nonaazacyclodotriacontine-7,26-diyl)bis(3-hydroxyquinoline-2-carboxamide)]
- pIC50 (average) [1]: 8.5
- HPLC [2]: 19.6 min
- DNA melt (° C.) (herring sperm DNA): 97 °C
- half-life at 1 μM ([3]; female, mouse, plasma): 12.3 h

Compound: CC[C@H](C)[C@H]1C(=O)NC[C@@H](NC(=O)c2nc3ccccc3cc2O)C(=O)N2CCCC[C@H]2C(=O)NCC(=O)N(C)CC(=O)N(C)[C@@H]([C@@H](C)CC)C(=O)NC[C@@H](NC(=O)c2nc3ccccc3cc2O)C(=O)N2CCCC[C@H]2C(=O)NCC(=O)N(C)CC(=O)N1C [Compound 67, N,N′-((7R,11S,19aS,26R,30S,38aS)-11,30-di((S)-sec-butyl)-12,15,31,34-tetramethyl-6,10,13,16,19,25,29,32,35,38-decaoxohexatriacontahydro-2H,6H-dipyrido[1,2-a:1′,2′-q][1,4,7,10,13,17,20,23,26,29]decaazacyclodotriacontine-7,26-diyl)bis(3-hydroxyquinoline-2-carboxamide)]
- pIC50 (average) [1]: 8.6
- HPLC [2]: 18.8 min
- DNA melt (° C.) (herring sperm DNA): 91 °C
- plasma stability (in words) [3]: stability over the course of the experiment

Compound: CCN1CC(=O)N(C)[C@@H](C(C)C)C(=O)NC[C@@H](NC(=O)c2nc3ccccc3cc2O)C(=O)N2CCCC[C@H]2C(=O)NCC(=O)N(CC)CC(=O)N(C)[C@@H](C(C)C)C(=O)NC[C@@H](NC(=O)c2nc3ccccc3cc2O)C(=O)N2CCCC[C@H]2C(=O)NCC1=O [Compound 132, N,N′-((7R,11S,19aS,26R,30S,38aS)-15,34-diethyl-11,30-diisopropyl-12,31-dimethyl-6,10,13,16,19,25,29,32,35,38-decaoxohexatriacontahydro-2H,6H-dipyrido[1,2-a:1′,2′-q][1,4,7,10,13,17,20,23,26,29]decaazacyclodotriacontine-7,26-diyl)bis(3-hydroxyquinoline-2-carboxamide)]
- pIC50 (average) [1]: 8.6
- HPLC [2]: 18.5 min
- plasma stability (in words) [3]: stability over the course of the experiment

Compound: CC(C)[C@H]1C(=O)NC[C@@H](NC(=O)c2nc3ccccc3cc2O)C(=O)N2CCCC[C@H]2C(=O)NCC(=O)NCC(=O)N(C)[C@@H](C(C)C)C(=O)NC[C@@H](NC(=O)c2nc3ccccc3cc2O)C(=O)N2CCCC[C@H]2C(=O)NCC(=O)NCC(=O)N1C [Compound 137, N,N′-((7R,11S,19aS,26R,30S,38aS)-11,30-diisopropyl-12,31-dimethyl-6,10,13,16,19,25,29,32,35,38-decaoxohexatriacontahydro-2H,6H-dipyrido[1,2-a:1′,2′-q][1,4,7,10,13,17,20,23,26,29]decaazacyclodotriacontine-7,26-diyl)bis(3-hydroxyquinoline-2-carboxamide)] (I: {Quinaldoyl(3-OH)}-[dDap][Pip]GG[NMeV] / II: {Quinaldoyl(3-OH)}-[dDap][Pip]GG[NMeV]; amide I:1-II:C, I:C-II:1)
- activity in cell assays (in words) [1]: inactive in cell assays
- pIC50 (average) [1]: Inactive
- HPLC [2]: 15.1 min
- DNA binding via SPR (in words) [4]: did not demonstrate measurable DNA binding
- KD (mM) [4]: none

Compound: CC(C)[C@@H]1NC(=O)CN(C)C(=O)CNC(=O)[C@@H]2CCCCN2C(=O)[C@H](NC(=O)c2nc3ccccc3cc2O)CNC(=O)[C@H](C(C)C)NC(=O)CN(C)C(=O)CNC(=O)[C@@H]2CCCCN2C(=O)[C@H](NC(=O)c2nc3ccccc3cc2O)CNC1=O [Compound 152] (I: {Quinaldoyl(3-OH)}-[dDap][Pip]G[Sar]V / II: {Quinaldoyl(3-OH)}-[dDap][Pip]G[Sar]V; amide I:1-II:C, I:C-II:1)
- pIC50 (average) [1]: 6.9
- HPLC [2]: 14.6 min
- DNA binding via SPR (in words) [4]: near complete loss of binding

Compound: CC(C)[C@H]1COC[C@@H](NC(=O)c2nc3ccccc3cc2O)C(=O)N2CCCC[C@H]2C(=O)NCC(=O)N(C)CC(=O)N(C)[C@@H](C(C)C)C(=O)NC[C@@H](NC(=O)c2nc3ccccc3cc2O)C(=O)N2CCCC[C@H]2C(=O)NCC(=O)N(C)CC(=O)N1C [Compound 178, N,N′-((7R,11S,19aS,26R,30S,38aS)-11,30-diisopropyl-12,15,31,34-tetramethyl-6,13,16,19,25,29,32,35,38-nonaoxotetratriacontahydro-2H,6H,10H-dipyrido[2,1-b1: 2′,1′-l][1]oxa[4,7,10,13,17,20,23,26,29]nonaazacyclodotriacontine-7,26-diyl)bis(3-hydroxyquinoline-2-carboxamide)]
- pIC50 (average) [1]: 8.1
- HPLC [2]: 18.4 min
- DNA melt (° C.) (herring sperm DNA): 92 °C
- plasma stability (in words) [3]: stability over the course of the experiment

Compound: CC(C)[C@H]1C(=O)NCC(=O)N(C)CC(=O)N2CCCC[C@H]2C(=O)NC[C@@H](NC(=O)c2nc3ccccc3cc2O)C(=O)N(C)[C@@H](C(C)C)C(=O)NCC(=O)N(C)CC(=O)N2CCCC[C@H]2C(=O)NC[C@@H](NC(=O)c2nc3ccccc3cc2O)C(=O)N1C [Compound 414, N,N′-((13S,16R,19aS,32S,35R,38aS)-13,32-diisopropyl-8,14,27,33-tetramethyl-6,9,12,15,19,25,28,31,34,38-decaoxohexatriacontahydro-2H,6H-dipyrido[2,1-c: 2′,1′-s][1,4,7,10,13,17,20,23,26,29]decaazacyclodotriacontine-16,35-diyl)bis(3-hydroxyquinoline-2-carboxamide)]
- activity in cell assays (in words) [1]: inactive
- pIC50 (average) [1]: inactive
- HPLC [2]: 16.8 min
- DNA binding via SPR (in words) [4]: non-binding
- KD (mM) [4]: none

Compound: (7R,11S,19aS,26R,38aS)-26-(((benzyloxy)carbonyl)amino)-11-isopropyl-12,15,30,30,31,34-hexamethyl-6,10,13,16,19,25,29,32,35,38-decaoxohexatriacontahydro-2H,6H-dipyrido[1,2-a:1′,2′-q][1,4,7,10,13,17,20,23,26,29]decaazacyclodotriacontin-7-aminium trifluoroacetate
- ring closure, yield after HPLC ([5]; 2 steps): 45%

Compound: Benzyl N-[(3R,7S,20S,27R,31S,44S)-27-[(tert-butoxycarbonyl)amino]-15,39-dimethyl-2,6,13,16,19,26,30,37,40,43-decaoxo-1,5,12,15,18,25,29,36,39,42-decaazapentacyclo[42.4.0.0^7,12.0^20,25.0^31,36]octatetracontan-3-yl]carbamate
- ring closure, yield after HPLC [5]: 40%

Compound: Benzyl tert-butyl ((7R,11S,19aS,26R,30S,38aS)-11,30-diisopropyl-15,34-dimethyl-6,10,13,16,19,25,29,32,35,38-decaoxohexatriacontahydro-2H,6H-dipyrido[1,2-a:1′,2′-q][1,4,7,10,13,17,20,23,26,29]decaazacyclodotriacontine-7,26-diyl)dicarbamate
- ring closure, yield after HPLC [5]: 20%

Compound: Tert-butyl (4-nitrobenzyl) ((7R,10aS,22aS,29R,32aS,44aS)-18,40-dimethyl-6,16,19,22,28,32,38,41,44-nonaoxodotetracontahydro-6H-tetrapyrido[2,1-b1: 2′,1′-c: 2″,1″-1:2′″,1′″-s][1]oxa[4,7,10,13,17,20,23,26,29]nonaazacyclodotriacontine-7,29-diyl)dicarbamate
- ring closure, yield after HPLC [5]: 23%
